We go through 21 compounds from patent US20250041310A1, “Combination Therapy Comprising A2A/A2B and PD-1/PD-L1 Inhibitors” (Incyte Corporation, priority 2020, published 2025).

Like-named read-outs stand apart in the source and are kept apart here.

The target in one test is Adenosine A2A Receptor (Homo sapiens (Human), UniProt P29274). Nature of the test: A2A Tag-lite HTRF Assay. The test is classed as binding. The conditions noted are these: Tag-lite A2A labeled cells, fluorescent ligand 12.5 nM; read-out: A2A_Ki.
The target of test [1] is human adenosine A2B receptor (Homo sapiens (Human), UniProt P29275). Nature of the test: Adenosine A2B Receptor cyclic AMP GS Assay. The test is classed as cell-based. The protocol: Stably transfected HEK-293 cells expressing the human adenosine A2B receptor (Perkin Elmer) were maintained in MEM culture medium with 10% FBS and 100 μg/ml Geneticin (Life Technologies). 18 to 24 hours prior to assay, geneticin was removed from culture. The cisbio cAMP-GS Dynamic kit utilizing the FRET (Fluorescence Resonance Energy Transfer) technology was used to measure cAMP accumulation in the cells. Compounds of the present disclosure at an appropriate concentration were mixed with 10000 cells/well in white 96 well half area plates (Perkin Elmer) for 30 min at RT gently shaking. […] Detection reagents, d2-labeled cAMP (acceptor) and anti-cAMP cryptate (donor) were added to each well for 60 min at RT gently shaking.

For test [2], the system named is PBMC from healthy donors stimulated by CD3 antibody. The test is described as follows: In vitro Mixed Lineage Reaction assay (MLR). It is filed as cell-based. The method, then:
On day 0, 10,000 PBMCs from a healthy donor was co-cultured with 10,000 γ-radiated PBMCs from another healthy donor. […] Cells were incubated at 37° C. for 4 days. IFN-γ in the supernatant of each well was measured by a HTRF kit (Cisbio, 62[…]) and the fluorescent signal was detected on a Pherastar FS plate reader (BMG Labtech) on day 4.

Where [3] appears, read: HEK-293 cells, agonist NECA 12 nM, read-out: A2B_cAMP_EC50.

Sequence of Adenosine A2A Receptor (P29274 whole entry): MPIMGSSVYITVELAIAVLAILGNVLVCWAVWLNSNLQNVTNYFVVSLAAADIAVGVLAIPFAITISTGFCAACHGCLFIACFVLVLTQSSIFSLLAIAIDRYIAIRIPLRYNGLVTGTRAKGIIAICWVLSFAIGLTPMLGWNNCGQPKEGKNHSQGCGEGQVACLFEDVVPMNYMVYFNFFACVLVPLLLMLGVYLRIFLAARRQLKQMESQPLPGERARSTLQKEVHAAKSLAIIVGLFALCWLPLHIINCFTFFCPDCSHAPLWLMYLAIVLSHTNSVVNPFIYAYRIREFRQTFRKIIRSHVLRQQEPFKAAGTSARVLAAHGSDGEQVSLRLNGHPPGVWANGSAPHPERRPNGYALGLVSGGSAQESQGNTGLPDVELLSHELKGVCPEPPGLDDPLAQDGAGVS
Sequence of human adenosine A2B receptor (P29275 whole entry): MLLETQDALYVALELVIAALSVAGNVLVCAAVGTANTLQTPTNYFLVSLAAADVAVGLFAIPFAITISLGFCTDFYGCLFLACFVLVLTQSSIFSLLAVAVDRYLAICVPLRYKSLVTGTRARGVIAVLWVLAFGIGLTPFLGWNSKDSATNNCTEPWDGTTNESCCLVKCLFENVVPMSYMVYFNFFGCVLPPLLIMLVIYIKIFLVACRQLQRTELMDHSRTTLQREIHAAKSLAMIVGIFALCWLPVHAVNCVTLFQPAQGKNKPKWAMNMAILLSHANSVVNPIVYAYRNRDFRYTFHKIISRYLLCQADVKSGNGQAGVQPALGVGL
Method for Adenosine A2A Receptor: Test compounds were first serially diluted in DMSO and 100 nl added to the plate wells before the addition of other reaction components. The final concentration of DMSO was 1%. Tag-lite® Adenosine A2A labeled cells (CisBio C1TT1A2A) were diluted 1:5 into Tag-lite buffer (CisBio LABMED) and spun 1200 g for 5 mins.

Consider `N#Cc1cccc(-c2nc(N)c3nc(C(O)c4c(F)cccc4F)nn3c2-c2ccncn2)c1` (single isomer, unassigned) [Compound 10, 3-(8-Amino-2-((2,6-difluorophenyl)(hydroxy)methyl)-5-(pyrimidin-4-yl)-[1,2,4]triazolo[1,5-a]pyrazin-6-yl)benzonitrile], for which, on Adenosine A2A Receptor, the Ki is below 10 nM. Further, the EC50 in test [1] was below 10 nM.

Turning to `Cc1cc(-c2c(-c3cccc(C#N)c3)nc(N)c3nc(C(O)c4c(F)cccc4F)nn23)cc(C)n1` (single isomer, unassigned) [Compound 12, 3-(8-amino-2-((2,6-difluorophenyl)(hydroxy)methyl)-5-(2,6-dimethylpyridin-4-yl)-[1,2,4]triazolo[1,5-a]pyrazin-6-yl)benzonitrile], on Adenosine A2A Receptor, the Ki was below 10 nM. The EC50 in test [1] fell in the range of 10 to 100 nM.

With `N#Cc1cccc(-c2nc(N)n3nc(Cc4ccccn4)nc3c2-c2ccncn2)c1` [Compound 1, 3-(5-Amino-2-(pyridin-2-ylmethyl)-8-(pyrimidin-4-yl)-[1,2,4]triazolo[1,5-c]pyrimidin-7-yl)benzonitrile], the Ki at Adenosine A2A Receptor is below 10 nM.

As to `N#Cc1cccc(-c2nc(N)n3nc(C(O)c4c(F)cccc4F)nc3c2-c2ccncn2)c1` (stereo not shown) [Compound 2, 3-(5-Amino-2-((2,6-difluorophenyl)(hydroxy)methyl)-8-(pyrimidin-4-yl)-[1,2,4]triazolo[1,5-c]pyrimidin-7-yl)benzonitrile], the Ki on Adenosine A2A Receptor was below 10 nM. In addition, the EC50 in test [1] (setting [3]) is below 10 nM.

On to `N#Cc1cccc(-c2nc(N)n3nc(Cn4nnc(-c5ccccn5)n4)nc3c2-c2ccncn2)c1` [Compound 3A, 3-(5-amino-2-((5-(pyridin-2-yl)-2H-tetrazol-2-yl)methyl)-8-(pyrimidin-4-yl)-[1,2,4]triazolo[1,5-c]pyrimidin-7-yl)benzonitrile], for which the “effect of combination with atezolizumab” value in test [2] (PBMC stimulated with CD3 antibody, FIGS. 2A-2D) is given as “synergistic effect”. Also, the IFNγ production entry in test [2] (combined with anti-PD-L1 antibody atezolizumab, 1 μM NECA, CD3 antibody, 4 days) is listed as “increase IFNγ production significantly”.

As for `N#Cc1cccc(-c2nc(N)n3nc(Cn4nnc(-c5ccccn5)n4)nc3c2-c2ccncn2)c1` [Compound 3], the Ki on Adenosine A2A Receptor is below 10 nM. Besides, in test [1] (setting [3]), the EC50 is below 10 nM.

With `Cc1cccnc1COc1nc2c(-c3ccncn3)c(-c3cccc(C#N)c3)nc(N)n2n1` [Compound 4, 3-(5-Amino-2-((3-methylpyridin-2-yl)methoxy)-8-(pyrimidin-4-yl)-[1,2,4]triazolo[1,5-c]pyrimidin-7-yl)benzonitrile], the Ki at Adenosine A2A Receptor is below 10 nM.

Regarding `N#Cc1cccc(-c2cc3nc(C(O)c4ccccc4)nn3c(N)n2)c1` (stereo not shown) [Compound 5, 3-(5-Amino-2-(hydroxy(phenyl)methyl)-[1,2,4]triazolo[1,5-c]pyrimidin-7-yl)benzonitrile], the Ki at Adenosine A2A Receptor was below 10 nM.

For the compound `N#Cc1cccc(-c2cc3nc(C(O)c4c(F)cccc4F)nn3c(N)n2)c1F` (stereo not shown) [Compound 6, 3-(5-Amino-2-((2,6-difluorophenyl)(hydroxy)methyl)-[1,2,4]triazolo[1,5-c]pyrimidin-7-yl)-2-fluorobenzonitrile], the Ki on Adenosine A2A Receptor is below 10 nM.

As to `N#Cc1cccc(-c2nc(N)n3nc(C(O)c4c(F)cccc4F)nc3c2C#N)c1F` (stereo not shown) [Compound 7, 5-Amino-7-(3-cyano-2-fluorophenyl)-2-((2,6-difluorophenyl)(hydroxy)methyl)-[1,2,4]triazolo[1,5-c]pyrimidine-8-carbonitrile], the Ki on Adenosine A2A Receptor is below 10 nM.

For the compound `CN1CCC(NCc2cccc(F)c2C(O)c2nc3cc(-c4cccc(C#N)c4F)nc(N)n3n2)C1=O` (stereo not shown) [Compound 8, 3-(5-Amino-2-((2-fluoro-6-(((1-methyl-2-oxopyrrolidin-3-yl)amino)methyl)phenyl)(hydroxy)methyl)-[1,2,4]triazolo[1,5-c]pyrimidin-7-yl)-2-fluorobenzonitrile], the Ki at Adenosine A2A Receptor is below 10 nM.

For the compound `Cc1ncoc1-c1c(-c2cccc(C#N)c2)nc(N)c2nc(C(N)c3c(F)cccc3F)nn12` (stereo not shown) [Compound 11, 3-(8-amino-2-(amino(2,6-difluorophenyl)methyl)-5-(4-methyloxazol-5-yl)-[1,2,4]triazolo[1,5-a]pyrazin-6-yl)benzonitrile], the Ki on Adenosine A2A Receptor is below 10 nM.

Consider `N#Cc1cccc(-c2nc(N)c3nn(Cc4ccccn4)nc3c2-c2ccncn2)c1` [Compound 13, 3-(4-amino-2-(pyridin-2-ylmethyl)-7-(pyrimidin-4-yl)-2H-[1,2,3]triazolo[4,5-c]pyridin-6-yl)benzonitrile], for which the Ki on Adenosine A2A Receptor is below 10 nM. For the same compound, in test [1] (setting [3]), the EC50 is below 10 nM.

Consider `N#Cc1cccc(-c2nc(N)c3nn(Cc4ncccc4F)nc3c2-c2ccncn2)c1` [Compound 14, 3-(4-amino-2-((3-fluoropyridin-2-yl)methyl)-7-(pyrimidin-4-yl)-2H-[1,2,3]triazolo[4,5-c]pyridin-6-yl)benzonitrile], for which the Ki on Adenosine A2A Receptor is below 10 nM. Besides, the EC50 in test [1] (setting [3]) is below 10 nM.

Regarding `N#Cc1cccc(-c2nc(N)c3nn(Cc4ncccc4F)nc3c2-c2ccncc2)c1` [Compound 15, 3-(4-amino-2-((3-fluoropyridin-2-yl)methyl)-7-(pyridin-4-yl)-2H-[1,2,3]triazolo[4,5-c]pyridin-6-yl)benzonitrile], at Adenosine A2A Receptor, the Ki was below 10 nM. Also, the EC50 in test [1] (setting [3]) is below 10 nM.

In the case of `Cn1nccc1-c1c(-c2cccc(C#N)c2F)nc(N)c2nn(Cc3ccccn3)nc12` [Compound 16, 3-(4-amino-7-(1-methyl-1H-pyrazol-5-yl)-2-(pyridin-2-ylmethyl)-2H-[1,2,3]triazolo[4,5-c]pyridin-6-yl)-2-fluorobenzonitrile], the Ki on Adenosine A2A Receptor is below 10 nM. For the same compound, the EC50 in test [1] (setting [3]) is below 10 nM.

In the case of `CCCCCn1c2cc(-c3cnn(Cc4cncc(Cl)c4)c3)[nH]c2c(=O)n2c(C)nnc12` [Compound 17, 7-(1-((5-Chloropyridin-3-yl)methyl)-1H-pyrazol-4-yl)-3-methyl-9-pentyl-6,9-dihydro-5H-pyrrolo[3,2-d][1,2,4]triazolo[4,3-a]pyrimidin-5-one], at Adenosine A2A Receptor, the Ki is below 10 nM.

For the compound `CCCCCn1c2cc(-c3cnn(Cc4cncc(C)c4)c3)[nH]c2c(=O)n2c(C)nnc12` [Compound 18, 3-Methyl-7-(1-((5-methylpyridin-3-yl)methyl)-1H-pyrazol-4-yl)-9-pentyl-6,9-dihydro-5H-pyrrolo[3,2-d][1,2,4]triazolo[4,3-a]pyrimidin-5-one], the Ki at Adenosine A2A Receptor was below 10 nM.

In the case of `CCCCCn1c2cc(-c3cnn(Cc4cnc5ccsc5c4)c3)[nH]c2c(=O)n2c(C)nnc12` [Compound 19, 3-Methyl-9-pentyl-7-(1-(thieno[3,2-b]pyridin-6-ylmethyl)-1H-pyrazol-4-yl)-6,9-dihydro-5H-pyrrolo[3,2-d][1,2,4]triazolo[4,3-a]pyrimidin-5-one], at Adenosine A2A Receptor, the Ki is below 10 nM.

With `CCCCCn1c2cc(-c3cnn(Cc4ccc5c(c4)CCN(C(=O)CN(C)C)C5)c3)[nH]c2c(=O)n2c(C)nnc12` [Compound 20, 7-(1-((2-(2-(Dimethylamino)acetyl)-1,2,3,4-tetrahydroisoquinolin-6-yl)methyl)-1H-pyrazol-4-yl)-3-methyl-9-pentyl-6,9-dihydro-5H-pyrrolo[3,2-d][1,2,4]triazolo[4,3-a]pyrimidin-5-one], on Adenosine A2A Receptor, the Ki is below 10 nM.

On to `N#Cc1cccc(-c2nc(N)n3nc(Cn4nnc(-n5cccn5)n4)nc3c2-c2ccncn2)c1` [Compound 21], for which the Ki at Adenosine A2A Receptor is below 10 nM. In test [1] (setting [3]), the EC50 was below 10 nM.
